# Source: article PMC10220917, “Transdermal Delivery of α-Aminophosphonates as Semisolid Formulations—An In Vitro-Ex Vivo Study” (Pharmaceutics, 2023)
# Several values for one entry are separate records, joined by “and”; a condition that tells them apart may be missing. Equal values may be shown once.
# What was measured:
# [1] = Particle size (droplet size) distribution of 2% creams by laser diffraction; type: physicochemical; conditions: 2% cream formulation
# Description: α-Aminophosphonates were dispersed in the following hydrophilic cream base (O/W emulsion ointments): 46 m/m% Petrolatum ointment base, 10 m/m% Propylene glycol (Hungaropharma Zrt., Budapest, Hungary), 4 m/m% Paraffin oil (Hungaropharma Zrt., Budapest, Hungary), 38 m/m% Purified water. The components of the Petrolatum ointment base were 26 m/m% Vaselinum album (Hungaropharma Zrt., Budapest, Hungary), 12 m/m% Cetostearyl alcohol (Molar Chemicals Kft, Halásztelek, Hungary), 10 m/m% Propylene glycol, 8 m/m% Paraffin oil, 4 m/m% Polyoxyethylene sorbitan monostearate (Poly-sorbate 60) (Hungaropharma Zrt. Budapest, Hungary), and 40 m/m% Purified water (Table 3). The concentration of propylene glycol was set based on the recommendations on topical dosage forms.
# The particle size distribution was measured with a Malvern Mastersizer2000 (Malvern Instruments Ltd., Malvern, UK) laser diffraction device. In total, 1 g of sample was dispersed in 10 mL of water, and after 1 min of Vortex shaking, 1 mL was taken and added to the sample dispenser unit containing 100 mL of purified water. The dispenser unit was applied at 1500 RPM.
# The multi-channel detector system measured the scattering of red laser light with a wavelength of […], and the evaluation software provided the results after three parallel exposures according to the Fraunhofer method. The average curves were calculated from three parallel measurements. […]
# [2] = Drug penetration in static Franz diffusion cells through excised rat skin; type: in vitro ADME, male Wistar rats; conditions: 2% cream, Franz cell, 32 °C
# Experimental: In the ex vivo experiments, the abdominal skin of male Wistar rats (ToxiCoop, Budapest, Hungary), with 520–609 g bodyweight, were used. The animals had free access to food and water before the study. The experiments were performed in compliance with the guidelines of the Association for Assessment and Accreditation of Laboratory Animal Care International and were in accordance with the spirit of the license issued by the Directorate for the Safety of the Food Chain and Animal Health, Budapest, and Pest Agricultural Administrative Authority, Hungary (PE/EA/4122-7/2016). The rats were anaesthetized intraperitoneally with chloral hydrate (400 mg/kg). The abdominal surface was shaved with an electric shaver and epilated with an epilator cream (X-epil, Aveola Kft., Budapest, Hungary). […] The double-layered skin (pinched together by hand) thickness of the epilated tape-stripped skin was measured with an engineer’s micrometer (Asimeto, Budapest, Hungary). […]
# Hanson 6-Cell Manual Diffusion Test System-type vertical diffusion cells (Franz cell) were used (Hanson Research Corp., Chatsworth CA, USA; ABL&E-JASCO Hungary Kft., Budapest, Hungary, Figure 1A). […] The weight of the sample was measured with analytical accuracy. […]
# [3] = Drug release in static Franz diffusion cells through cellulose acetate membrane; type: in vitro ADME; conditions: 2% cream, Franz cell, 32 °C
# Experimental: (§1) For the in vitro studies, cellulose acetate filter with pore size of 0.45 μm (Sartorius AG, Göttingen, Germany) was cut to size (35 mm and 18 mm diameter discs for Franz diffusion cell and skin-on-a-chip microfluidic system, respectively) and soaked in isopropyl myristate (Molar Chemicals Kft., Halásztelek, Hungary) for 30 min before the experiment. The excess of isopropyl myristate was removed, and the impregnated cellulose acetate membrane was placed into the Franz diffusion cell or microfluidic diffusion chamber.
# Hanson 6-Cell Manual Diffusion Test System-type vertical diffusion cells (Franz cell) were used (Hanson Research Corp., Chatsworth CA, USA; ABL&E-JASCO Hungary Kft., Budapest, Hungary, Figure 1A). Each unit was composed of a donor chamber, which was filled with 1000 µL of the aminophosphonate cream by a Microman E piston gel positive replacement pipette (Gilson, Middleton, WI, USA). The sample was layered in a uniform layer on the top of the membrane. The weight of the sample was measured with analytical accuracy. […]
# (§2) The Franz diffusion cell data and the skin-on-a-chip data were averaged, and the means and standard error of the mean (SE) were calculated and presented. Area under the curve (AUC) values were calculated using Origin Pro software. […]
# [4] = Drug release in dynamic skin-on-a-chip microfluidic diffusion chamber through cellulose acetate membrane; type: in vitro ADME; conditions: 2% cream
# Experimental: as §1
# The skin-on-a-chip microfluidic diffusion chamber is a polydimethylsiloxane-based system in an aluminium frame (Figure 1B). Similar to the Franz diffusion cells, it contains two compartments, and the membrane or skin is placed between them. The major advantage of this technique is the reduction in needed volumes and pieces in the required components, membranes and skins, as discussed in detail in our previous papers. The diffusion surface is 0.5 cm^2, which separates the aminophosphonate cream-containing donor chamber and the PPF-filled receptor chamber. […]
# as §2
# [5] = tested on: multidrug-resistant (MDR) uterine sarcome cell line; set-up: method as in earlier work; conditions: MDR uterine sarcoma cells; cited from earlier work
# [6] = Drug penetration in dynamic skin-on-a-chip microfluidic diffusion chamber through excised rat skin; type: in vitro ADME, male Wistar rats; conditions: 2% cream; for Cmax (cumulative mass penetrated through excised skin): dynamic cell, excised rat skin, 5 h; for Effect of higher temperature on absorption across excised skins: 32 °C vs 23.5 °C, dynamic diffusion cells
# Experimental: In the ex vivo experiments, the abdominal skin of male Wistar rats (ToxiCoop, Budapest, Hungary), with 520–609 g bodyweight, were used. The animals had free access to food and water before the study. The experiments were performed in compliance with the guidelines of the Association for Assessment and Accreditation of Laboratory Animal Care International and were in accordance with the spirit of the license issued by the Directorate for the Safety of the Food Chain and Animal Health, Budapest, and Pest Agricultural Administrative Authority, Hungary (PE/EA/4122-7/2016). The rats were anaesthetized intraperitoneally with chloral hydrate (400 mg/kg). The abdominal surface was shaved with an electric shaver and epilated with an epilator cream (X-epil, Aveola Kft., Budapest, Hungary). The skin was washed, wiped dry and mechanically sensitized 10 times by tape stripping with leucoplast (BSN Medical GmbH, Hamburg, Germany) to remove the upper layers of dead keratinocytes. This technique enables reaching detectable concentrations in the dermis and hypodermis. The double-layered skin (pinched together by hand) thickness of the epilated tape-stripped skin was measured with an engineer’s micrometer (Asimeto, Budapest, Hungary). The average double-layered skin thickness was 1.53 ± 0.03 mm. After the first cutting with blunt Metzen scissors, connecting tissue, fat and blood vessels were carefully removed. For the Franz diffusion cell and skin-on-a-chip studies, full-thickness skin incisions were made by punches (Stubai GmbH, Fulpmes, Austria) in diameter of 35 mm and 18 mm, respectively. The excised samples were wrapped in aluminium foil and stored in a deep freezer at −80 °C. On the day of the study, the skin preparations were taken out from the freezer for 30 min before the initiation of the experiment and thawed at room temperature.
# The skin-on-a-chip microfluidic diffusion chamber is a polydimethylsiloxane-based system in an aluminium frame (Figure 1B). Similar to the Franz diffusion cells, it contains two compartments, and the membrane or skin is placed between them. The major advantage of this technique is the reduction in needed volumes and pieces in the required components, membranes and skins, as discussed in detail in our previous papers. The diffusion surface is 0.5 cm^2, which separates the aminophosphonate cream-containing donor chamber and the PPF-filled receptor chamber. Contrary to the static Franz diffusion cells, the microfluidic diffusion chamber is a dynamic system, i.e., the PPF flow is continuous in the receptor compartment, ensured by a syringe pump (NE-1000, New Era, Farmingdale, NY, USA), which includes a 5 mL syringe filled with PPF, at a flow rate of 4 µL/min during the experiment. The PPF solution was running through the chip, filling the receptor chamber and the microfluidic channel and leaving the device at the outlet into collection vials. The samples were collected every 30 min for 5 h. The collected samples were placed on dry ice and stored at −80 °C until the bioanalysis. First, the experiments were performed at room temperature (23.5 °C) with temperature regulation by automatic air conditioning system in the lab in three parallels. The investigations were then repeated at 32 °C, putting the whole system into an incubator (Steriliser SN160, Memmert GmbH, Schwabach, Germany). As the volume capacity of incubator was low, only one syringe pump and skin-on-a-chip could be tested in the instrument at the same time. […]
SMILES,Particle (droplet) size d of main peak [1],Volume share at main particle size peak [1],Penetration profile in rat skin [2],"Cmax (cumulative mass penetrated through excised skin) ([2]; excised rat skin, 5 h)",Penetration kinetics in the membrane [3],"Cmax (cumulative mass released through membrane) ([3]; cellulose acetate membrane, 5 h)","Cmax (cumulative mass released through membrane) ([4]; dynamic cell, cellulose acetate membrane, 32 °C, 5 h)","Effect of higher temperature on penetration through membranes ([4]; 32 °C vs 23.5 °C, dynamic diffusion cells)",Degree of cytotoxicity [5],Cmax (cumulative mass penetrated through excised skin) ([6]; 32 °C),Cmax (cumulative mass penetrated through excised skin) ([6]; ambient temperature (23.5 °C)),Effect of higher temperature on absorption across excised skins [6],Particle (droplet) size d of second peak [1] [µm],Volume share at second particle size peak [1]
CCOP(=O)(OCC)C(NCc1ccccc1)c1ccccc1 (stereo not drawn) [1a],33.156 µm and 33 µm,7%,almost linear growing profile,~ 21 µg/cm^2,rapid and saturating,~ 330 µg/cm^2,~ 300 µg/cm^2,only moderately enhanced,less cytotoxic,~ 9 µg/cm^2,~ 2.8 μg/cm^2,significantly improved,,
CCOP(=O)(OCC)C(NCc1ccccc1)c1ccc(C)cc1 (stereo not drawn) [1b],30–40 µm,about 6.3%,,,,,,,most effective,,,practically independent of the temperature,110,about 3.2%
CCOP(=O)(OCC)C(NCc1ccccc1)c1ccc(Cl)cc1 (stereo not drawn) [1c],20–30 µm,7.3%,,,,,,,most effective,,,significantly improved,110,~ 3.0%
